{"source": "patent EP0255256A2", "about": "“Antibiotics produced by actinomadura parvosata” (SMITHKLINE BECKMAN CORPORATION, priority 1986, dated 1988)", "key": {"[1]": {"system": "Staph. aureus 209P", "assay": "MIC, standard microtiter assay", "type": "cell-based", "settings": "Staphylococcus aureus, 209P, read-out: MIC in μg/ml, Staph. aureus 209P", "experimental": "(§1) The in vitro minimal inhibitory concentration (MIC) of the AAJ-271 complex and its factors, and vancomycin were determined for a number of microorganisms using the standard microtite'r assay procedures. The results are shown in the following tables, each of which represents a different production run of the complex.\n(§2) The in vitro minimal inhibitory concentration (MIC) and the in vitro minimal bactericidal concentration (MBC) of the AAJ-271 aglycones, pseudo-aglycone and vancomycin were determined for a number of microorganisms using the standard microtiter assay procedures."}, "[2]": {"system": "Strep. faecalis 34358", "assay": "MIC, standard microtiter assay", "type": "cell-based", "settings": "Enterococcus faecalis, 34358, read-out: MIC in μg/ml, Strep. faecalis 34358", "experimental": "as §1, §2"}, "[3]": {"assay": "Serum half-life and urine concentration in mice (disk agar diffusion bioassay)", "settings": "mouse, in vivo; strain CD-1 mice; antibiotic activity in blood serum by disk agar diffusion, Bacillus subtilis ATCC 6633 indicator", "experimental": "The antibiotic compounds of the present invention also have a very long serum half-life. The compounds of the present invention have a serum half-life of 12 hours compared to 0.3 hour for vancomycin. […] Antibiotic activity in blood serum was evaluated by disk agar diffusion with penicillin assay agar that was seeded with a Bacillus subtilis ATCC 6633 spore suspension as the indicator. Serum samples were evaluated against standards diluted in mouse serum and urines were evaluated against standards prepared in 1% pH 6 phosphate buffer. Assays were incubated at 28°C. […] The long half-life of the compounds of the present invention indicate usefulness prophylactically as an aid in prevention of infection."}, "[4]": {"system": "Staph. epidermidis 2261", "assay": "MIC, standard microtiter assay", "type": "cell-based", "settings": "Staphylococcus epidermidis, 2261, read-out: MIC in μg/ml", "experimental": "as §2"}, "[5]": {"system": "Staph. aureus 209P vancomycin resistant mutant", "assay": "MIC, standard microtiter assay", "type": "cell-based", "settings": "Staphylococcus aureus, read-out: MIC in μg/ml", "experimental": "as §2"}, "[6]": {"system": "Staph. haemolyticus 651", "assay": "Mouse protection assay", "type": "in vivo", "settings": "Staphylococcus haemolyticus, 1 h; mice; Staph. haemolyticus 651, Dosage as No. of LD50's=9; treatment one hour post infection; Table IV"}, "[7]": {"system": "Staph. aureus 2620", "assay": "MBC, standard assay procedures", "type": "cell-based", "experimental": "(§3) The in vitro minimal bactericidal concentration (MBC) of the AAJ-271 C, C2 and C3 factors and vancomycin were determined for a number of microorganisms using standard assay procedures.\nas §2"}, "[8]": {"system": "Staph. aureus HH127", "assay": "MBC, standard assay procedures", "type": "cell-based", "settings": "Staphylococcus aureus", "experimental": "as §3, §2"}, "[9]": {"system": "Strep. faecalis 657", "assay": "MBC, standard assay procedures", "type": "cell-based", "experimental": "as §3, §2"}, "[10]": {"system": "Staph. haemolyticus 651", "assay": "MBC, standard assay procedures", "type": "cell-based", "experimental": "as §3, §2"}, "[11]": {"system": "Staph. epidermidis 2265", "assay": "MBC, standard assay procedures", "type": "cell-based", "experimental": "as §3, §2"}, "[12]": {"system": "Staph. aureus 675", "assay": "MBC, standard assay procedures", "type": "cell-based", "experimental": "as §3, §2"}, "[13]": {"system": "Strep. faecalis 34358", "assay": "MBC, standard assay procedures", "type": "cell-based", "experimental": "as §3, §2"}, "[14]": {"system": "Staph. epidermidis 2479", "assay": "MBC, standard assay procedures", "type": "cell-based", "experimental": "as §3, §2"}, "[15]": {"system": "Staph. aureus HH127", "assay": "Mouse protection assay", "type": "in vivo", "settings": "Staphylococcus aureus"}, "[16]": {"system": "Strep. faecalis 34358", "assay": "Mouse protection assay", "type": "in vivo"}, "[17]": {"system": "Staph. aureus 2630", "assay": "Mouse protection assay", "type": "in vivo", "settings": "Staphylococcus aureus, 2630, 1 h"}, "[18]": {"system": "Staph. aureus 209P", "assay": "MBC, standard assay procedures", "type": "cell-based", "settings": "Staphylococcus aureus, 209P, read-out: MBC in μg/ml", "experimental": "as §2"}, "[19]": {"system": "Strep. pyogenes (Group A)", "assay": "MBC, standard assay procedures", "type": "cell-based", "settings": "Streptococcus pyogenes, read-out: MBC in μg/ml", "experimental": "as §2"}, "[20]": {"system": "Staph. aureus 910", "assay": "MBC, standard assay procedures", "type": "cell-based", "settings": "Staphylococcus aureus, 910, read-out: MBC in μg/ml", "experimental": "as §2"}, "[21]": {"system": "Staph. epidermidis 2588", "assay": "MBC, standard assay procedures", "type": "cell-based", "settings": "Staphylococcus epidermidis, 2588, read-out: MBC in μg/ml", "experimental": "as §2"}, "[22]": {"system": "Staph. epidermidis 2261", "assay": "MBC, standard assay procedures", "type": "cell-based", "settings": "Staphylococcus epidermidis, 2261, read-out: MBC in μg/ml", "experimental": "as §2"}, "[23]": {"system": "Staph. aureus 209P vancomycin resistant mutant", "assay": "MBC, standard assay procedures", "type": "cell-based", "settings": "Staphylococcus aureus, read-out: MBC in μg/ml", "experimental": "as §2"}, "[24]": {"system": "Staph. saprophyticus 2657", "assay": "MBC, standard assay procedures", "type": "cell-based", "settings": "Staphylococcus saprophyticus, 2657, read-out: MBC in μg/ml", "experimental": "as §2"}, "[25]": {"system": "Staph. epidermidis 2256", "assay": "MBC, standard assay procedures", "type": "cell-based", "settings": "Staphylococcus epidermidis, 2256, read-out: MBC in μg/ml", "experimental": "as §2"}}, "note": "Read-outs that look alike come from different tables or passages of the source.", "data": [{"smiles": "CN[C@H](CC(C)C)C(=O)N[C@H]1C(=O)N[C@@H](CC(N)=O)C(=O)N[C@H]2C(=O)N[C@H]3C(=O)N[C@H](C(=O)N[C@H](C(=O)O)c4cc(O)cc(O)c4-c4cc3ccc4O)[C@H](O)c3ccc(c(Cl)c3)Oc3cc2cc(c3O[C@@H]2O[C@H](CO)[C@@H](O)[C@H](O)[C@H]2O[C@H]2C[C@](C)(N)[C@H](O)[C@H](C)O2)Oc2ccc(cc2Cl)[C@H]1O", "note": "[Vancomycin, vancomycin]", "values": [{"measurement": "MIC", "setting": "[1]; Table I", "result": 1.6, "unit": "µg/mL"}, {"measurement": "MIC", "setting": "[1]; Table VIII", "result": 0.8, "unit": "µg/mL"}, {"measurement": "MIC", "setting": "[2]; Table I", "result": 1.6, "unit": "µg/mL"}, {"measurement": "MIC", "setting": "[2]; Table II", "result": 6.3, "unit": "µg/mL"}, {"measurement": "MIC", "setting": "[2]; Table IX", "result": 6.3, "unit": "µg/mL"}, {"measurement": "MIC", "setting": "[2]; Table VIII", "result": 3.1, "unit": "µg/mL"}, {"measurement": "half-life", "setting": "[3]", "result": 18, "unit": "min"}, {"measurement": "MIC", "setting": "[4]", "result": 6.3, "unit": "µg/mL"}, {"measurement": "MIC", "setting": "[5]", "result": "> 100", "unit": "µg/mL"}, {"measurement": "ED50", "setting": "[6]", "result": 2.2, "unit": "mg/kg"}, {"measurement": "MBC", "setting": "[7]; Staphylococcus aureus, 2620, read-out: MBC in μg/ml, Staph. aureus 2620, Table IX", "result": 3.1, "unit": "µg/mL"}, {"measurement": "MBC", "setting": "[7]; Staphylococcus aureus, 2620, read-out: MBC in μg/ml, Staph. aureus 2620, Table VIII", "result": 1.6, "unit": "µg/mL"}, {"measurement": "MBC", "setting": "[7]; Staphylococcus aureus, IIIB, read-out: MBC in μg/ml, Staph. aureus 2620, Table IIIB", "result": 3.1, "unit": "µg/mL"}, {"measurement": "MBC", "setting": "[8]; HH127, read-out: MBC in μg/ml, Staph. aureus HH127, Table IX", "result": 3.1, "unit": "µg/mL"}, {"measurement": "MBC", "setting": "[8]; HH127, read-out: MBC in μg/ml, Staph. aureus HH127, Table VIII", "result": 1.6, "unit": "µg/mL"}, {"measurement": "MBC", "setting": "[8]; IIIB, read-out: MBC in μg/ml, Staph. aureus HH127, Table IIIB", "result": 3.1, "unit": "µg/mL"}, {"measurement": "MBC", "setting": "[9]; Enterococcus faecalis, 657, read-out: MBC in μg/ml, Strep. faecalis 657, Table IX", "result": 6.3, "unit": "µg/mL"}, {"measurement": "MBC", "setting": "[9]; Enterococcus faecalis, 657, read-out: MBC in μg/ml, Strep. faecalis 657, Table VIII", "result": 3.1, "unit": "µg/mL"}, {"measurement": "MBC", "setting": "[9]; Enterococcus faecalis, IIIB, read-out: MBC in μg/ml, Strep. faecalis 657, Table IIIB", "result": 6.3, "unit": "µg/mL"}, {"measurement": "MBC", "setting": "[10]; Staphylococcus haemolyticus, 651, read-out: MBC in μg/ml, Staph. haemolyticus 651, Table IX", "result": 12.5, "unit": "µg/mL"}, {"measurement": "MBC", "setting": "[10]; Staphylococcus haemolyticus, 651, read-out: MBC in μg/ml, Staph. haemolyticus 651, Table VIII", "result": 3.1, "unit": "µg/mL"}, {"measurement": "MBC", "setting": "[10]; Staphylococcus haemolyticus, IIIB, read-out: MBC in μg/ml, Staph. haemolyticus 651, Table IIIB", "result": 12.5, "unit": "µg/mL"}, {"measurement": "MBC", "setting": "[11]; Staphylococcus epidermidis, 2265, read-out: MBC in μg/ml, Staph. epidermidis 2265, Table IX", "result": 6.3, "unit": "µg/mL"}, {"measurement": "MBC", "setting": "[11]; Staphylococcus epidermidis, 2265, read-out: MBC in μg/ml, Staph. epidermidis 2265, Table VIII", "result": 3.1, "unit": "µg/mL"}, {"measurement": "MBC", "setting": "[11]; Staphylococcus epidermidis, IIIB, read-out: MBC in μg/ml, Staph. epidermidis 2265, Table IIIB", "result": 6.3, "unit": "µg/mL"}, {"measurement": "MBC", "setting": "[12]; Staphylococcus aureus, 675, read-out: MBC in μg/ml, Staph. aureus 675, Table IX", "result": 6.3, "unit": "µg/mL"}, {"measurement": "MBC", "setting": "[12]; Staphylococcus aureus, 675, read-out: MBC in μg/ml, Staph. aureus 675, Table VIII", "result": 3.1, "unit": "µg/mL"}, {"measurement": "MBC", "setting": "[12]; Staphylococcus aureus, IIIB, read-out: MBC in μg/ml, Staph. aureus 675, Table IIIB", "result": 6.3, "unit": "µg/mL"}, {"measurement": "MBC", "setting": "[13]; Enterococcus faecalis, 34358, read-out: MBC in μg/ml, Strep. faecalis 34358, Table IX", "result": 12.5, "unit": "µg/mL"}, {"measurement": "MBC", "setting": "[13]; Enterococcus faecalis, 34358, read-out: MBC in μg/ml, Strep. faecalis 34358, Table VIII", "result": 50, "unit": "µg/mL"}, {"measurement": "MBC", "setting": "[13]; Enterococcus faecalis, read-out: MBC in μg/ml, Strep. faecalis 34358, Table", "result": 12.5, "unit": "µg/mL"}, {"measurement": "MBC", "setting": "[14]; Staph. epidermidis 2479, Table IX", "result": 6.3, "unit": "µg/mL"}, {"measurement": "MBC", "setting": "[14]; Staphylococcus epidermidis, 2479, read-out: MBC in μg/ml", "result": 6.3, "unit": "µg/mL"}, {"measurement": "MBC", "setting": "[14]; Staphylococcus epidermidis, IIIB, read-out: MBC in μg/ml", "result": 6.3, "unit": "µg/mL"}, {"measurement": "ED50", "setting": "[15]; HH127, 1 h", "result": 0.26, "unit": "mg/kg"}, {"measurement": "ED50", "setting": "[15]; HH127, iv, 1 h", "result": 2.8, "unit": "mg/kg"}, {"measurement": "ED50", "setting": "[16]; Enterococcus faecalis, 34358, 1 h", "result": 1.25, "unit": "mg/kg"}, {"measurement": "ED50", "setting": "[16]; Enterococcus faecalis, 34358, iv, 1 h", "result": 1.3, "unit": "mg/kg"}, {"measurement": "ED50", "setting": "[17]", "result": 0.78, "unit": "mg/kg"}, {"measurement": "MBC", "setting": "[18]", "result": 0.8, "unit": "µg/mL"}, {"measurement": "MBC", "setting": "[19]", "result": 0.8, "unit": "µg/mL"}, {"measurement": "MBC", "setting": "[20]", "result": 1.6, "unit": "µg/mL"}, {"measurement": "MBC", "setting": "[21]", "result": 6.3, "unit": "µg/mL"}, {"measurement": "MBC", "setting": "[22]", "result": 3.1, "unit": "µg/mL"}, {"measurement": "MBC", "setting": "[23]", "result": "> 100", "unit": "µg/mL"}, {"measurement": "MBC", "setting": "[24]", "result": 6.3, "unit": "µg/mL"}, {"measurement": "MBC", "setting": "[25]", "result": 3.1, "unit": "µg/mL"}]}]}
